Like-named read-outs stand apart in the source and are kept apart here.
Assays:
[1] = biological target: T1, TLR9 (Homo sapiens, UniProt Q9NR96); test: TLR9 dependent cell responses (statement in description); assay type: cell-based
T1 sequence (Q9NR96 26-1032): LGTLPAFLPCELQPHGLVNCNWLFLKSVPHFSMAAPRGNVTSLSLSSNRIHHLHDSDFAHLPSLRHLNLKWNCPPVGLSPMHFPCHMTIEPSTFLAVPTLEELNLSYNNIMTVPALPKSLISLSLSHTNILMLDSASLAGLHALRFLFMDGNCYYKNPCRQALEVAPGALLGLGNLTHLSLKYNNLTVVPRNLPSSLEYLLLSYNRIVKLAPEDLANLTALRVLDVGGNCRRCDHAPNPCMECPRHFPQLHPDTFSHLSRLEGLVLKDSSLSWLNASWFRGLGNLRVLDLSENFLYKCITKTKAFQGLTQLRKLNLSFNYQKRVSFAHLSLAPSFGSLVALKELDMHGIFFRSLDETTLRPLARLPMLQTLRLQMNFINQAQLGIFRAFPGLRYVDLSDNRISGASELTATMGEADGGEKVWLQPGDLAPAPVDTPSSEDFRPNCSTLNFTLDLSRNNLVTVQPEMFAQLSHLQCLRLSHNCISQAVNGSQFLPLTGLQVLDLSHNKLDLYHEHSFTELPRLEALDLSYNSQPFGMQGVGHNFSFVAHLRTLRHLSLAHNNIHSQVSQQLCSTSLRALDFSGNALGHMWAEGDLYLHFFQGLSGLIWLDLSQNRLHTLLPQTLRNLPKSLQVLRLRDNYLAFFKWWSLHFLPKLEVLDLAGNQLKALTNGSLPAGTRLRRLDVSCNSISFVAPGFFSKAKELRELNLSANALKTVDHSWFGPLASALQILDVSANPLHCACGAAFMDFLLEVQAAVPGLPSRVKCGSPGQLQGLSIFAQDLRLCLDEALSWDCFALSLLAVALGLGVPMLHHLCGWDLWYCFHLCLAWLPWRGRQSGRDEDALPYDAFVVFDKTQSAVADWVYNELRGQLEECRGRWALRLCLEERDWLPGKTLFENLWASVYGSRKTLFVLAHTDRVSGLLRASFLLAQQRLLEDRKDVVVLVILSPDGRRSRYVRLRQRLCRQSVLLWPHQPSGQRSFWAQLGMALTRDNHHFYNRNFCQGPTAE

[2] = biological target: T2, TLR7 (Homo sapiens, UniProt Q9NYK1); test: TLR7 dependent cell responses (statement in description); assay type: cell-based
T2 sequence (Q9NYK1 27-1049): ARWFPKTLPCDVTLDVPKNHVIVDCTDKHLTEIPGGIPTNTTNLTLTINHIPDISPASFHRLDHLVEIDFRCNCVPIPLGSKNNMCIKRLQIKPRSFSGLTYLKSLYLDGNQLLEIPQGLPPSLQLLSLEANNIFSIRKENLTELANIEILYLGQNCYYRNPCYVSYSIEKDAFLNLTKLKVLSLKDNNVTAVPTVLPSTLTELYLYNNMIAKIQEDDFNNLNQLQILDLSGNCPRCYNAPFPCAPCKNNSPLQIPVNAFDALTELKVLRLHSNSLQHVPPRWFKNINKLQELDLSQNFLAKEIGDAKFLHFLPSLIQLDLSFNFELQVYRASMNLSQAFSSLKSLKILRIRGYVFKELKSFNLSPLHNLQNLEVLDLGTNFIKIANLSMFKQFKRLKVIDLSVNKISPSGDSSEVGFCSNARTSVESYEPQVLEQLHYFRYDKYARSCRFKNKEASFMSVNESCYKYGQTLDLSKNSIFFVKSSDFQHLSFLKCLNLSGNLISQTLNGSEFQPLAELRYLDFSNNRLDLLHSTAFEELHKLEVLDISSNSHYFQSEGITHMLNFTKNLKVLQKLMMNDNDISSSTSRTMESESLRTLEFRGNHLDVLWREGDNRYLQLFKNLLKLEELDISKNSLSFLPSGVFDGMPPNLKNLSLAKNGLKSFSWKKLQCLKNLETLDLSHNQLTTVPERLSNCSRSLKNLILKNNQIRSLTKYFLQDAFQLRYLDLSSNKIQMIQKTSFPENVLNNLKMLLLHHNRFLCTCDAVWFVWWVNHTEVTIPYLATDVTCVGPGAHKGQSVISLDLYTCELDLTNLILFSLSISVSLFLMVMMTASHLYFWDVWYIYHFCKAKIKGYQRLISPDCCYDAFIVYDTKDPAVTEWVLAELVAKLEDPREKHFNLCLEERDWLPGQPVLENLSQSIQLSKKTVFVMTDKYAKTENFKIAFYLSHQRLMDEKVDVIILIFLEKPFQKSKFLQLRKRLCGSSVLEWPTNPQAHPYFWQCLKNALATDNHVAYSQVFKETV

[3] = biological target: T3, TLR7 (Mus musculus, UniProt P58681); test: Mouse splenocytes stimulated with R848 (TLR7 ligand), IL-6 by immunoassay; assay type: cell-based
T3 construct: The dispersed splenocytes were pelleted by centrifugation, then resuspended in fresh medium; endogenous in cells; host or cells: primary splenocytes of BALB/c mice
T3 sequence (P58681 27-1050): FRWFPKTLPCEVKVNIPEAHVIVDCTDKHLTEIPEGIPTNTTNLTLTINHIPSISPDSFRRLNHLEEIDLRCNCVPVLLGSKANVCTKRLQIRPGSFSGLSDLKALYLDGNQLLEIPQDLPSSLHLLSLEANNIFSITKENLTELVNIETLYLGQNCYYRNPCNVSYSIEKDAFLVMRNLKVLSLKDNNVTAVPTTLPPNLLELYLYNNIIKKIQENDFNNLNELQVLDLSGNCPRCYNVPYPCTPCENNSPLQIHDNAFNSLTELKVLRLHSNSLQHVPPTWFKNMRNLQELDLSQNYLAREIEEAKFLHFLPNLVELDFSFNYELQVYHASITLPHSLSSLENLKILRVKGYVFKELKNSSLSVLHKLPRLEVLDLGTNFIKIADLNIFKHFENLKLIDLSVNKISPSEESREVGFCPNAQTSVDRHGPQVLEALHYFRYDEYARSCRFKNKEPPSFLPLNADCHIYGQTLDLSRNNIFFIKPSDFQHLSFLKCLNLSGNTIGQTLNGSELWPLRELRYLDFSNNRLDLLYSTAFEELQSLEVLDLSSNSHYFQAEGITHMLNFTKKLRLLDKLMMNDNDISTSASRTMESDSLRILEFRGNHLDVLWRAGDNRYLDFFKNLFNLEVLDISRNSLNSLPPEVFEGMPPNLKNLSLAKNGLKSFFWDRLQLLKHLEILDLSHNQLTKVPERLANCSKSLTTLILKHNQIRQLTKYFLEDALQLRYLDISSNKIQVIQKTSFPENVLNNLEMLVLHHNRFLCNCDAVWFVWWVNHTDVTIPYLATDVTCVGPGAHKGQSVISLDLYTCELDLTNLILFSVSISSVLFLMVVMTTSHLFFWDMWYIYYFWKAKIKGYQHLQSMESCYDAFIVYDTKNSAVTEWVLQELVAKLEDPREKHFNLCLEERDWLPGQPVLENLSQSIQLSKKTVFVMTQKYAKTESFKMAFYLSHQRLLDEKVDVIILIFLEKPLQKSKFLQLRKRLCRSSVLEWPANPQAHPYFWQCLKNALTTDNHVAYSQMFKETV
Procedure: Modified and unmodified immunoregulatory polynucleotides (IRPs) (i.e., polynucleotides containing at least one modified or unmodified IRS) or control samples were assayed for immunoregulatory (IR) activity of innate immune responses on human and mouse cells.
For mouse cell assays, spleens from 6-12 week-old BALB/c mice spleen were harvested and mechanically dispersed by forcing the digested fragments through metal screens. The dispersed splenocytes were pelleted by centrifugation, then resuspended in fresh medium (RPMI 1640 with 10% fetal calf serum, plus 50 units/mL penicillin, 50 μg/mL streptomycin, 2 mM glutamine, and 0.05 mM β-mercaptoethanol). In a dose-dependent manner, the cells were then stimulated with […] of 1018 ISS (TLR9 ligand; 5′-[…]-3′ (SEQ ID NO:122)) or 1 μM of R848 (TLR7 ligand; a small molecule, an imidazoquinoline also called resiquimod) either alone or in the presence of the tested IRPs. At 48 hours, supernatants were collected and cytokine levels, IL-6, were measured using immunoassays. […]

[4] = Solubility of spacer measured as dialcohol precursor; assay type: physicochemical; conditions: dodecyl spacer measured as dialcohol precursor
Procedure: Thus, the definition of spacers excludes microcarriers or nanocarriers. In addition, a spacer moiety that has low solubility, such as a dodecyl spacer (solubility <5 mg/ml when measured as dialcohol precursor 1,12-dihydroxydodecane) is not preferred because it can reduce the hydrophilicity and activity of the IRC. Preferably, spacer moieties have solubility much greater than 5 mg/ml (e.g., 20 mg/ml, ≦50 mg/ml or 100 mg/ml) when measured as dialcohol precursors.

[5] = tested on: plasmacytoid dendritic cells (PDCs); assay type: cell-based, human; conditions: read-out: concentration of hydroxycortisone necessary to achieve 50% death of PDCs

Row | Compound | TLR9 dependent cell responses [1] | TLR7 dependent cell responses [2] | also measured
1 | 5′-TCCTGGAGGGGTTGT-3′ (chemistry not given here) [SEQ ID NO:17] | greater inhibitory activity |  | 
2 | 5′-TGCTTGCAAGCTAGCAAGCA-3′ (chemistry not given here) [SEQ ID NO:33] |  | inhibits | 
3 | 5′-TGCTTGCAAGCTAGCAAGCA-HEG-TCCTGGAGGGGTTGT-3′ (TGCTTGCAAGCTAGCAAGCATCCTGGAGGGGTTGT; Two nucleotide segments joined by a hexaethylene glycol (HEG) spacer, nucleotide chemistry not given here) [SEQ ID NO:68] | very active in inhibiting | very active in inhibiting | 
4 | 5′-TGCTTGCAAGCTTGCAAGCA-3′ (chemistry not given here) [SEQ ID NO:27] |  | inhibits | 
5 | 5′-TGCTTGCAAGCTTGCTAGCA-3′ (chemistry not given here) [SEQ ID NO:34] | The same is also true | The same is also true | 
6 | 5′-TGCTTGCAAGCTTGCTAGCA-HEG-TCCTGGAGGGGTTGT-3′ (TGCTTGCAAGCTTGCTAGCATCCTGGAGGGGTTGT; Two nucleotide segments joined by a hexaethylene glycol (HEG) spacer, nucleotide chemistry not given here) [SEQ ID NO:69] | The same is also true | The same is also true | 
7 | 5′-UGC UCC UGG AGG GGU UGU-3′ (DNA UGCUCCUGGAGGGGUUGU; all 2'-O-methyl, backbone not given here) [SEQ ID NO:135, all nucleotides modified with a 2′-O-Me modification] |  |  | IL-6 levels compared to unmodified SEQ ID NO:123 [3]: significant decrease
8 | OCCCCCCCCCCCCO [1,12-dihydroxydodecane] |  |  | solubility [4]: < 5000 µg/mL
9 | C[C@]12CCC(=O)C=C1CC[C@@H]1[C@@H]2[C@@H](O)C[C@@]2(C)[C@H]1CC[C@]2(O)C(=O)CO [hydroxycortisone, reference compound] |  |  | EC50 ([5]; in the presence of CpG-C ISS C274): 2000 nM; EC50 ([5]; in the presence of HSV (HSV-1 KOS strain)): 150 nM; EC50 ([5]; in the presence of HSV and SEQ ID NO:123): 4 nM; EC50 ([5]; in the presence of influenza virus and SEQ ID NO:123): 22 nM; EC50 ([5]; in the presence of influenza virus): 4500 nM; EC50 ([5]; in the presence of the ISS and SEQ ID NO:123): 85 nM
